From ChEMBL document CHEMBL4622885, “Rational design, synthesis and biological evaluation of novel multitargeting anti-AD iron chelators with potent MAO-B inhibitory and antioxidant activity” (Bioorg Med Chem, 2020)

Experiments:
[1] = Dissociation constant, pKa1 of compound for protonation of the 4-oxo group in 0.1 M KCl incubated for 1 min by UV-pH titration based spectrophotometric analysis; format: physicochemical
[2] = Metal chelating activity assessed as Fe3+ complex formation by measuring stability constant for Fe(I)2 in using pre Fe+3 complexed compound (FeCl3) in 0.1 M KCl :DMSO solution UV-pH titration based spectrophotometric analysis
[3] = Metal chelating activity assessed as iron chelation
[4] = target: T1, Amine oxidase [flavin-containing] B (Homo sapiens, UniProt P27338); assay: Inhibition of human recombinant MAO-B expressed in baculovirus infected BTI insect cells using kynuramine as substrate incubated for 10 mins followed by substrate addition by fluorimetric analysis
T1 sequence (P27338 whole entry): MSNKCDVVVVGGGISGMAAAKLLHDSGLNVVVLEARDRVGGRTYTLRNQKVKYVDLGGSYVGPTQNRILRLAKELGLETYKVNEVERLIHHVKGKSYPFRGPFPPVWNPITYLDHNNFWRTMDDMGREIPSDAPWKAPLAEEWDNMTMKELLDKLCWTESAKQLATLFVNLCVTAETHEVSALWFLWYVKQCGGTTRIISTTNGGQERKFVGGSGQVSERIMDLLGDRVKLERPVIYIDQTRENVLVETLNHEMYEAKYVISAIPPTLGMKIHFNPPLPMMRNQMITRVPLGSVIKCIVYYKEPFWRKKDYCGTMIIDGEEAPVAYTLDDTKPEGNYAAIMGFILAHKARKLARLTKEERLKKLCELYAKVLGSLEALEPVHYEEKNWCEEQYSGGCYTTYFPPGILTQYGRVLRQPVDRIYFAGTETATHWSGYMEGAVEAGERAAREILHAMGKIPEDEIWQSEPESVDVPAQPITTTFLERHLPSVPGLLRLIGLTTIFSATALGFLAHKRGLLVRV

[5] = Metal chelating activity assessed as Fe3+ complex formation by measuring stability constant for Fe(I)3 in using pre Fe+3 complexed compound (FeCl3) in 0.1 M KCl :DMSO solution UV-pH titration based spectrophotometric analysis
[6] = Dissociation constant, pKa2 of compound for dissociation of the 3-hydroxyl group in 0.1 M KCl incubated for 1 min by UV-pH titration based spectrophotometric analysis; format: physicochemical
[7] = target: T1, Amine oxidase [flavin-containing] B; assay: Inhibition of human recombinant MAO-B expressed in baculovirus infected BTI insect cells using kynuramine as substrate at 100 nM incubated for 10 mins followed by substrate addition by fluorimetric analysis relative to control
[8] = Metal chelating activity assessed as Fe3+ complex formation by measuring stability constant for FeI in using pre Fe+3 complexed compound (FeCl3) in 0.1 M KCl :DMSO solution UV-pH titration based spectrophotometric analysis
[9] = system: Mus musculus; assay: (§1) Antialzheimer activity in scopolamine-induced impairment in ICR mouse assessed as latency time at 15 mg/kg, ip administered once a day for 10 days pretreated with scopolamine for 30 mins and measured at 5th day of training session by Morris water maze test (reference value: 29.4 +/- 5.77 sec); format: functional
[10] = system: Mus musculus; assay: as §1, with “total distance to platform” for “latency time”, “6.56” for “29.4”, “1.27 m)” for “5.77 sec)”; format: functional
[11] = system: Mus musculus; assay: Antialzheimer activity in scopolamine-induced impairment in ICR mouse assessed as total entries at 15 mg/kg, ip administered once a day for 10 days pretreated with scopolamine for 30 mins and measured at 5th day of training session by Morris water maze test (reference value: 2.19 +/- 0.16); format: functional
[12] = Cytotoxicity against rat PC12 cells assessed as cell viability at 50 uM incubated for 24 hrs by MTT assay relative to control; format: cell-based, PC-12; conditions: read-out: Activity
[13] = Cytotoxicity against rat PC12 cells assessed as cell viability at 6.25 uM incubated for 24 hrs by MTT assay relative to control; format: cell-based, PC-12; conditions: read-out: Activity
[14] = system: PC-12; assay: Neuroprotective activity in amyloid beta (1 to 42 residues) (unknown origin)-induced ROS production in rat PC12 cells assessed as intracellular ROS level at 10 uM pretreated for 36 hrs followed by incubation with DCFH-DA for 10 mins by flow cytometry analysis (reference value: 30.7%); format: functional
[15] = Cytotoxicity against rat PC12 cells assessed as cell viability at 25 uM incubated for 24 hrs by MTT assay relative to control; format: cell-based, PC-12; conditions: read-out: Activity
[16] = Cytotoxicity against rat PC12 cells assessed as cell viability at 12.5 uM incubated for 24 hrs by MTT assay relative to control; format: cell-based, PC-12; conditions: read-out: Activity
[17] = system: PC-12; assay: Neuroprotective activity against amyloid beta (1 to 42 residues) induced cytotoxicity in rat PC12 cells assessed as cell viability at 10 uM incubated for 24 hrs by MTT assay (reference value: 100%); format: functional; conditions: PC-12, 24 h, read-out: Activity
[18] = Cytotoxicity against rat PC12 cells assessed as cell viability at 3.13 uM incubated for 24 hrs by MTT assay relative to control; format: cell-based, PC-12; conditions: read-out: Activity

SMILES | pKa at 1 min [1] | log(activity) [2] | pFe3+ [3] | IC50 [4] | log(activity) [5] | pKa at 1 min [6] | inhibition at 0.1 µM [7] | log(activity) [8] | Time [9] | Activity [10] | Activity [11] | viability at 24 h, 50 µM [12] | viability at 24 h, 6.25 µM [13] | Activity [14] | viability at 24 h, 25 µM [15] | viability at 24 h, 12.5 µM [16] | viability at 10 µM [17] | viability at 24 h, 3.13 µM [18]
Cc1c(O)c(=O)ccn1CCNC(=O)c1cc2cc(O)ccc2oc1=O | 3.33 | 26.5 | 17.2 | 188 nM | 34.1 | 10.1 | 46.4% | 15.1 |  |  |  |  |  |  |  |  |  | 
Cc1c(O)c(=O)ccn1CCNC(=O)c1cc2ccc(OCc3ccc(C(C)C)cc3)cc2oc1=O | 3.18 | 25.6 | 19 | 117 nM | 35.6 | 9.79 | 45.7% | 14.6 |  |  |  |  |  |  |  |  |  | 
Nc1c2c(nc3ccccc13)CCCC2 [TACRINE] |  |  |  |  |  |  |  |  | 18.03 s | 4.28 m | 4.63 |  |  |  |  |  |  | 
Cc1c(O)c(=O)ccn1CCNC(=O)c1cc2ccc(OCc3ccc(C(F)(F)F)cc3)cc2oc1=O | 3.37 | 25.1 | 18.1 | 119 nM | 34.9 | 9.83 | 47.4% | 14 |  |  |  |  |  |  |  |  |  | 
Cc1cccc(COc2ccc3cc(C(=O)NCCn4ccc(=O)c(O)c4C)c(=O)oc3c2)c1 | 3.27 | 24.4 | 18.8 | 144 nM | 35.2 | 9.72 | 44.6% | 14.2 |  |  |  |  |  |  |  |  |  | 
CCCOc1ccc2cc(C(=O)NCCn3ccc(=O)c(O)c3C)c(=O)oc2c1 | 3.31 | 26 | 18.1 | 135 nM | 34.6 | 9.75 | 45.9% | 14.6 |  |  |  |  |  |  |  |  |  | 
Cc1c(O)c(=O)ccn1CCNC(=O)c1cc2ccc(OCc3ccc(C(C)(C)C)cc3)cc2oc1=O | 3.17 | 26.1 | 20.2 | 122 nM | 36.6 | 9.73 | 45.3% | 14.8 |  |  |  |  |  |  |  |  |  | 
COc1cccc2cc(C(=O)NCCn3ccc(=O)c(O)c3C)c(=O)oc12 | 3.22 | 25.4 | 18.2 | 111 nM | 34.1 | 9.55 | 46% | 14.2 |  |  |  |  |  |  |  |  |  | 
Cc1cc(=O)c(O)cn1CCNC(=O)c1cc2ccccc2oc1=O | 3.3 | 23.3 | 17.3 | 129 nM | 31.8 | 9.05 | 44.8% | 12.9 |  |  |  |  |  |  |  |  |  | 
C#CCN(C)Cc1ccccc1 [PARGYLINE] |  |  |  |  |  |  | 53% |  | 20.85 s | 4.37 m | 3.81 |  |  |  |  |  |  | 
Cc1c(O)c(=O)ccn1CCNC(=O)c1cc2ccccc2oc1=O | 3.22 | 25 | 17.9 | 173 nM | 33.9 | 9.59 | 46.9% | 14 |  |  |  |  |  |  |  |  |  | 
CCOc1ccc2cc(C(=O)NCCn3ccc(=O)c(O)c3C)c(=O)oc2c1 | 3.3 | 25.6 | 18.2 | 108 nM | 34.7 | 9.75 | 46.2% | 14.2 |  |  |  |  |  |  |  |  |  | 
Cc1c(O)c(=O)ccn1CCNC(=O)c1cc2ccc(OCc3cccc(Cl)c3)cc2oc1=O | 3.26 | 24.9 | 18.6 | 136 nM | 34.5 | 9.56 | 47.4% | 14.4 |  |  |  |  |  |  |  |  |  | 
COc1ccc2cc(C(=O)NCCn3ccc(=O)c(O)c3C)c(=O)oc2c1 | 3.27 | 26.2 | 18.9 | 87.9 nM | 35.3 | 9.7 | 65.5% | 14.9 | 14.94 s | 3.87 m | 4.63 | 61.7% | 99.9% | 8.2% | 90.4% | 98% | 88.2% | 98.7%
COc1ccc(COc2ccc3cc(C(=O)NCCn4ccc(=O)c(O)c4C)c(=O)oc3c2)cc1 | 3.24 | 24.8 | 17 | 143 nM | 33.3 | 9.77 | 47.6% | 14.1 |  |  |  |  |  |  |  |  |  | 
Cc1c(O)c(=O)ccn1CCNC(=O)c1cc2cc(OCc3ccccc3)ccc2oc1=O | 3.25 | 24.3 | 16.9 | 100 nM | 32 | 9.32 | 47.7% | 13.7 |  |  |  |  |  |  |  |  |  | 
Cc1c(O)c(=O)ccn1CCNC(=O)c1cc2ccc(OCc3cccc(F)c3)cc2oc1=O | 3.32 | 24.7 | 17.1 | 108 nM | 33.3 | 9.65 | 49.1% | 14.1 |  |  |  |  |  |  |  |  |  | 
Cc1c(O)c(=O)ccn1CCNC(=O)c1cc2ccc(OCc3cc(F)cc(F)c3)cc2oc1=O | 3.25 | 25 | 16.9 | 125 nM | 33.5 | 9.78 | 47.4% | 14.3 |  |  |  |  |  |  |  |  |  | 
Cc1cccc2cc(C(=O)NCCn3ccc(=O)c(O)c3C)c(=O)oc12 | 3.3 | 25.8 | 18.7 | 156 nM | 35.2 | 9.75 | 44% | 14.4 |  |  |  |  |  |  |  |  |  | 
Cc1c(O)c(=O)ccn1CCNC(=O)c1cc2ccc(OCc3ccc(F)cc3)cc2oc1=O | 3.27 | 25.1 | 17 | 128 nM | 33.5 | 9.76 | 48.1% | 14.2 |  |  |  |  |  |  |  |  |  | 
Cc1c(O)c(=O)ccn1CCNC(=O)c1cc2ccc(OCc3cc(F)ccc3F)cc2oc1=O | 3.2 | 24.9 | 17.2 | 115 nM | 33.6 | 9.74 | 49.1% | 14.1 |  |  |  |  |  |  |  |  |  | 
CC12CC3CC(C)(C1)CC(N)(C3)C2 [MEMANTINE] |  |  |  |  |  |  |  |  | 13.42 s | 3.52 m | 5.19 |  |  | 30.51% |  |  | 55.2% | 
Cc1c(O)c(=O)ccn1CCNC(=O)c1cc2cccc(O)c2oc1=O | 3.35 | 26 | 17.6 | 158 nM | 34.8 | 9.98 | 46.2% | 14.4 |  |  |  |  |  |  |  |  |  | 
